Literature values as cited in patent US8871945B2, “Process for preparation of rufinamide” (priority 2010, dated 2014).

Key:
[1] = test system: sodium channels; details: cultured cortical neurons; read-out: EC50 for limiting sustained repetitive firing of sodium-dependent action potentials
[2] = test system: sodium channels; details: Rufinamide ≧1 μM; after a prolonged prepulse; cultured cortical neurons

EC50 [1]: 3.8 µM
Compound: NC(=O)c1cn(Cc2c(F)cccc2F)nn1 [Rufinamide, 1-(2,6-difluorobenzyl)-1H-1,2,3-triazole-4-carboxamide]
sodium channel recovery from inactivation [2]: significantly slowed
